In patent US9532994B2, “Agents and methods for enhancing bone formation by oxysterols in combination with bone morphogenic proteins” (THE REGENTS OF THE UNIVERSITY OF CALIFORNIA, priority 2003, dated 2017):

Experiments:
Format in all cases: cell-based, mouse
[1] = test system: lipoprotein lipase (LPL); assay: Northern blotting for lipoprotein lipase in M2 cells; conditions: 10 μM Tro with 10 μM 20S, 10 days (FIGS. 7C and D)
Experimental: (§1) RNA isolation and Northern blot analysis - Following treatment of cells under appropriate experimental conditions, total RNA was isolated using the RNA isolation kit from Stratagene (La Jolla, Calif., U.S.A.). Total RNA ([…]) was run on a 1% agarose/formaldehyde gel and transferred to Duralon-UV membranes (Strategene, CA, U.S.A.) and cross-linked with UV light. The membranes were hybridized overnight at 60° C. with ^32P-labeled mouse osteocalcin cDNA probe, mouse lipoprotein lipase (LPL), mouse adipocyte protein 2 (aP2) PCR-generated probes, human 28S or 18S rRNA probes obtained from Geneka Biotechnology (Montreal, Quebec, Canada) and Maxim Biotech (San Francisco, CA, U.S.A.), respectively. […] The extent of gene induction was determined by densitometry.
(§2) Test 2: (A) M2 cells at confluence were treated in RPMI containing 10% FBS with control vehicle or 10 μM troglitazone (Tro) in the absence or presence of 10 μM 20S or 22S oxysterols. After 10 days, adipocytes were visualized by oil Red O staining and quantified by light microscopy, shown in (B). […] After 10 days, total RNA was isolated and analyzed for lipoprotein lipase (LPL), adipocyte P2 gene (aP2) or 18S rRNA expression by Northern blotting as described (Ref). […]

[2] = test system: adipocyte P2 gene (aP2); assay: Northern blotting for adipocyte P2 gene in M2 cells; conditions: 10 μM Tro with 10 μM 20S, 10 days (FIGS. 7C and D)
Experimental: as §1, §2

[3] = test system: ERK2; assay: Western blot for pERK or ERK in M2 cells; conditions: 5 μM 20S for 1, 4, or 8 hours (FIG. 10A)
Experimental: (§3) Western blot analysis—After treatments, cells were lysed in lysis buffer, protein concentrations determined using the Bio-Rad protein assay (Hercules, Calif. U.S.A.), and SDS-PAGE performed as previously described. Probing for native and phosphorylated ERKs was performed as previously reported.
(§4) (A) M2 cells at confluence were pretreated for four hours with RPMI containing 1% FBS, followed by treatment with control vehicle or 5 μM 20S oxysterol for 1, 4, or 8 hours. Next total cell extracts were prepared and analyzed for levels of native or phosphorylated ERK (pERK) using specific antibodies as previously described. Data from a representative of four experiments are shown, each treatment shown in duplicate samples. (B) M2 cells at confluence were pretreated for 2 hours with control vehicle (C) or 20 μM PD98059 (PD) in osteogenic medium as previously described. Next, a combination of 22R and 20S oxysterols (RS, 5 μM each) were added to appropriate wells as indicated. After 10 days of incubation, matrix mineralization was quantified by the ^45Ca incorporation assay as previously described. Data from a representative of three experiments are reported as the mean±SD of quadruplicate determinations, normalized to protein concentration (p<0.01 for RS vs. RS+PD). […] After 10 days, adipocytes were visualized by oil Red O staining and quantified by light microscopy as previously described. […]

[4] = test system: ERK1; assay: Western blot for pERK or ERK in M2 cells; conditions: 5 μM 20S for 1, 4, or 8 hours (FIG. 10A)
Experimental: as §3, §4

CC(C)CCC[C@](C)(O)[C@H]1CC[C@H]2[C@@H]3CC=C4C[C@@H](O)CC[C@]4(C)[C@H]3CC[C@@]21C [20S, 20(S)-hydroxycholesterol]
expression of lipoprotein lipase (LPL) [1]: inhibition of the expression | expression of adipocyte P2 gene (aP2) [2]: inhibition of the expression | activation of ERK2 [3]: sustained activation | activation of ERK1 [4]: sustained activation
